From patent publication US20120129811A1, “TRICYCLIC INHIBITORS OF PRO-MATRIX METALLOPROTEINASE ACTIVATION” (priority 2010, published 2012)
Counter-ions that a name gives are not always drawn.

Columns and labels:
[1] = biological target: T1, proMMP9(20-445;ΔFnII) (SEQ ID NO:6) (Homo sapiens, UniProt P14780, DEL216-390); assay: ThermoFluor binding assay with proMMP9(20-445;ΔFnII)
T1 construct: start methionine (N); made in house; host or cells: E. coli BL21(DE3) RIL
T1 sequence (P14780 with tags, fused parts or gaps DEL216-390): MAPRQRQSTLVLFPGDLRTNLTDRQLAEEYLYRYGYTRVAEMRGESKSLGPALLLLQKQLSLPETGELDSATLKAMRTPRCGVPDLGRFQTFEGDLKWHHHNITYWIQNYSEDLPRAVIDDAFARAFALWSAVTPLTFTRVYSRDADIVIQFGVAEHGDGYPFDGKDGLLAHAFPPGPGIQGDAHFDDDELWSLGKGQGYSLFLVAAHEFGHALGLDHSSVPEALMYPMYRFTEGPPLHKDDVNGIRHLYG
Summary of the method: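 Protein thermal stability was measured with 2.8 μM proMMP9(20-445;ΔFnII) and 50 μM 1,8-ANS in 50 mM HEPES pH 7.0, 100 mM NaCl, 0.001% Tween-20, 2.5 mM MgCl2, 300 μM CaCl2, across serial compound dilutions. Samples were heated 40–90° C at 1° C/min with fluorescence read at 500 nm. Tm was fitted, and binding was derived from thermodynamic parameters obtained by DSC and ThermoFluor.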

[2] = biological target: T2, proMMP9(67-444;ΔFnII) (SEQ ID NO:5) (Homo sapiens, UniProt P14780, DEL216-390); assay: ThermoFluor binding assay with proMMP9(67-444;ΔFnII)
T2 construct: start methionine (N); made in house; host or cells: E. coli BL21(DE3) RIL
T2 sequence (P14780 with tags, fused parts or gaps DEL216-390): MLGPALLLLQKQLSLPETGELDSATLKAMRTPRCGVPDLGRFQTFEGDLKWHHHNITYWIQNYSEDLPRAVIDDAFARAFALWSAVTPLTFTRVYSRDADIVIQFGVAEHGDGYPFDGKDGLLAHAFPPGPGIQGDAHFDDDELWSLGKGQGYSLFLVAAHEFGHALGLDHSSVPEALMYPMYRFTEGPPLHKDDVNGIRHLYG
Summary of the method: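 Thermal shift of 3.5 μM proMMP9(67-444;ΔFnII), desalted beforehand, with 50 μM 1,8-ANS in 50 mM HEPES pH 7.0, 100 mM NaCl, 2.5 mM MgCl2, 300 μM CaCl2, 0.001% Tween-20. Heated 40–90 °C at 1 °C/min, fluorescence read at 500 nm; binding fitted from Tm shifts using DSC- and ThermoFluor-derived unfolding parameters.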

[3] = biological target: T3, full-length proMMP9(1-707) activation by catalytic MMP3 (Homo sapiens, UniProt P14780, R574P); assay: proMMP9/MMP3 P126 Activation Assay; assay type: biochemical
T3 construct: made in house; host or cells: proMMP9: HEK293 (secreted); MMP3: E. coli
T3 sequence (P14780 20-707 R574P): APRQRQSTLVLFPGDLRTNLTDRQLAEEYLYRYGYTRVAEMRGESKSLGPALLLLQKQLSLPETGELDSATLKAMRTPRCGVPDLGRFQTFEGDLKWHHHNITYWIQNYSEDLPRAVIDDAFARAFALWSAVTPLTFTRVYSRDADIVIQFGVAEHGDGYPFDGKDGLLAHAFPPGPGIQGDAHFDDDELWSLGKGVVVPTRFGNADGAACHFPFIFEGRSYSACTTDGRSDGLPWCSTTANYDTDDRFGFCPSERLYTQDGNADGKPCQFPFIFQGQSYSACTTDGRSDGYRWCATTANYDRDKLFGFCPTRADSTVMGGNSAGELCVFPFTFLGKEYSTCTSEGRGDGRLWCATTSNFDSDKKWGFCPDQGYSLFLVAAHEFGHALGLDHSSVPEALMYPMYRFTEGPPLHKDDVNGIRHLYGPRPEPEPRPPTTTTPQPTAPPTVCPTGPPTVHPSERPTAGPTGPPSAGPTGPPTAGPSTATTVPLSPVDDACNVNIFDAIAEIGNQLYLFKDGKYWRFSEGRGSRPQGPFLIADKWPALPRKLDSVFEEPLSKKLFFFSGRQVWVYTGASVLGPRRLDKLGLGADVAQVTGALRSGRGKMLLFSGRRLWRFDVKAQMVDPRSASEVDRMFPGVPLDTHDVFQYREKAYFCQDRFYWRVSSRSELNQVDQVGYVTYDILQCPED
Protocol: proMMP9/MMP3 P126 Activation Assay
The reaction volume was 50 μL. […] Reactivity of residual MMP3 towards P-126 substrate was minimal under these conditions.

Structure (SMILES)	Kd [1] [nM]	Kd [2] [nM]	IC50 [3] [nM]
CC(C)Oc1ccc(S(N)(=O)=O)cc1Nc1nc2c(ccc3ncn(C)c32)s1 [Example 131, 4-Isopropoxy-3-(8-methyl-8H-imidazo[4′,5′:3,4]benzo[2,1-d]thiazol-2-ylamino)-benzenesulfonamide.TFA]	> 95000	2000	590
COc1ccccc1Nc1nc2c(ccc3ncn(C)c32)s1 [Example 132, (2-Methoxy-phenyl)-(8-methyl-8H-imidazo[4′,5′:3,4]benzo[2,1-d]thiazol-2-yl)-amine.TFA]	> 95000	26000	1400
COc1ccc(S(C)(=O)=O)cc1Nc1nc2c(ccc3nc(C)n(C)c32)s1 [Example 134, (7,8-Dimethyl-8H-imidazo[4′,5′:3,4]benzo[2,1-d]thiazol-2-yl)-(5-methanesulfonyl-2-methoxy-phenyl)-amine.TFA]	1600	900	260
COc1ccc(S(C)(=O)=O)cc1Nc1nc2c(ccc3ncn(C)c32)s1 [Example 135, (5-Methanesulfonyl-2-methoxy-phenyl)-(8-methyl-8H-imidazo[4′,5′:3,4]benzo[2,1-d]thiazol-2-yl)-amine.TFA]	> 95000	640	270
CCn1c(C)nc2ccc3sc(Nc4cc(F)ccc4OC(C)C)nc3c21 [Example 139, (8-Ethyl-7-methyl-8H-imidazo[4′,5′:3,4]benzo[2,1-d]thiazol-2-yl)-(5-fluoro-2-isopropoxy-phenyl)-amine.TFA]	> 95000	960	330
Cc1nc2ccc3sc(Nc4cc(F)ccc4OC(C)C)nc3c2n1C [Example 140, (7,8-Dimethyl-8H-imidazo[4′,5′:3,4]benzo[2,1-d]thiazol-2-yl)-(5-fluoro-2-isopropoxy-phenyl)-amine.TFA]	> 95000	810	410
Cc1nc2ccc3sc(Nc4cc(F)ccc4OC(C)C)nc3c2n1CC(F)(F)F [Example 141, (5-Fluoro-2-isopropoxy-phenyl)-[7-methyl-8-(2,2,2-trifluoro-ethyl)-8H-imidazo[4′,5′:3,4]benzo[2,1-d]thiazol-2-yl]-amine.TFA]	33000	7500	1300
CC(C)Oc1ccc(F)cc1Nc1nc2c(ccc3ncn(CC(F)(F)F)c32)s1 [Example 142, (5-Fluoro-2-isopropoxy-phenyl)-[8-(2,2,2-trifluoro-ethyl)-8H-imidazo[4′,5′:3,4]-benzo[2,1-d]thiazol-2-yl]-amine.TFA]	> 95000	2400	1800
Cc1nc2ccc3sc(Nc4cc(S(C)(=O)=O)ccc4OC(C)C)nc3c2n1CC(F)(F)F [Example 145, (2-Isopropoxy-5-methanesulfonyl-phenyl)-[7-methyl-8-(2,2,2-trifluoro-ethyl)-8H-imidazo[4′,5′:3,4]benzo[2,1-d]thiazol-2-yl]-amine.TFA]	2500	560	390
CC(C)Oc1ccc(S(C)(=O)=O)cc1Nc1nc2c(ccc3ncn(CC(F)(F)F)c32)s1 [Example 146, (2-Isopropoxy-5-methanesulfonyl-phenyl)-[8-(2,2,2-trifluoro-ethyl)-8H-imidazo[4′,5′:3,4]-benzo[2,1-d]thiazol-2-yl]-amine.TFA]	3100	640	800
COc1ccc(S(C)(=O)=O)cc1Nc1nc2c(ccc3cnn(C)c32)s1 [Example 150, (5-Methanesulfonyl-2-methoxy-phenyl)-(1-methyl-1H-6-thia-1,2,8-triaza-as-indacen-7-yl)-amine.TFA]	8800	1200	340
COc1ccncc1Nc1nc2c(ccc3nc(C)n(C)c32)s1 [Example 154, N-(4-Methoxypyridin-3-yl)-7,8-dimethyl-8H-imidazo[4′,5′:5,6]benzo[1,2-d]thiazol-2-amine.TFA]	6600	1100	630

These reach a lower Kd [1]. Values come first.

Kd [1] [nM]	Kd [2] [nM]	IC50 [3] [nM]	Structure (SMILES)
1400	400	220	CC(C)Oc1ccc(S(C)(=O)=O)cc1Nc1nc2c(ccc3c2ncn3C)s1 [Example 147, (2-Isopropoxy-5-methanesulfonyl-phenyl)-(6-methyl-6H-imidazo[4′,5′:3,4]benzo[2,1-d]thiazol-2-yl)-amine.TFA]
1400	600	650	COc1ccncc1Nc1nc2c(ccc3ncn(CC(F)(F)F)c32)s1 [Example 153, N-(4-Methoxypyridin-3-yl)-8-(2,2,2-trifluoroethyl)-8H-imidazo[4′,5′:5,6]-benzo[1,2-d]thiazol-2-amine]
1300	310	280	CCn1c(C)nc2ccc3sc(Nc4cc(S(C)(=O)=O)ccc4OC)nc3c21 [Example 133, (8-Ethyl-7-methyl-8H-imidazo[4′,5′:3,4]benzo[2,1-d]thiazol-2-yl)-(5-methanesulfonyl-2-methoxy-phenyl)-amine.TFA]
1200	260	160	CCn1c(C)nc2ccc3sc(Nc4cc(S(C)(=O)=O)ccc4OC(C)C)nc3c21 [Example 143, (8-Ethyl-7-methyl-8H-imidazo[4′,5′:3,4]benzo[2,1-d]thiazol-2-yl)-(2-isopropoxy-5-methanesulfonyl-phenyl)-amine.TFA]
1000	39	110	COc1ccncc1Nc1nc2c(ccc3c2ncn3C)s1 [Example 149, (4-Methoxy-pyridin-3-yl)-(6-methyl-6H-imidazo[4′,5′:3,4]benzo[2,1-d]thiazol-2-yl)-amine.TFA]
880	660	260	Cc1nc2ccc3sc(Nc4cc(S(C)(=O)=O)ccc4OC(C)C)nc3c2n1C [Example 144, (7,8-Dimethyl-8H-imidazo[4′,5′:3,4]benzo[2,1-d]thiazol-2-yl)-(2-isopropoxy-5-methanesulfonyl-phenyl)-amine.TFA]
860	290	220	COc1ccncc1Nc1nc2c(ccc3nc(C)n(CC(F)(F)F)c32)s1 [Example 148, (4-Methoxy-pyridin-3-yl)-[7-methyl-8-(2,2,2-trifluoro-ethyl)-8H-imidazo[4′,5′:3,4]benzo[2,1-d]thiazol-2-yl]-amine.TFA]
770	590	1100	Cc1nc2ccc3sc(Nc4cc(S(N)(=O)=O)ccc4OC(C)C)nc3c2n1CC(F)(F)F [Example 136, 4-Isopropoxy-3-[7-methyl-8-(2,2,2-trifluoro-ethyl)-8H-imidazo[4′,5′:3,4]benzo[2,1-d]thiazol-2-ylamino]-benzenesulfonamide.TFA]
720	140	150	CCOc1ccncc1Nc1nc2c(ccc3nc(C)n(CC)c32)s1 [Example 155, N-(4-Ethoxypyridin-3-yl)-8-ethyl-7-methyl-8H-imidazo[4′,5′:5,6]benzo[1,2-d]thiazol-2-amine.TFA]
690	480	560	COc1ccc(S(C)(=O)=O)cc1Nc1nc2c(ccc3nc(C)n(CC(F)(F)F)c32)s1 [Example 138, (5-Methanesulfonyl-2-methoxy-phenyl)-[7-methyl-8-(2,2,2-trifluoro-ethyl)-8H-imidazo[4′,5′:3,4]benzo[2,1-d]thiazol-2-yl]-amine.TFA]
650	40	100	CCOc1ccncc1Nc1nc2c(ccc3c2ncn3C)s1 [Example 156, N-(4-Ethoxypyridin-3-yl)-6-methyl-6H-imidazo[4′,5′:5,6]benzo[1,2-d]thiazol-2-amine.HCl]
440	630	1100	CC(C)Oc1ccc(S(N)(=O)=O)cc1Nc1nc2c(ccc3ncn(CC(F)(F)F)c32)s1 [Example 137, 4-Isopropoxy-3-[8-(2,2,2-trifluoro-ethyl)-8H-imidazo[4′,5′:3,4]-benzo[2,1-d]thiazol-2-ylamino]-benzenesulfonamide.TFA]
350	18	42	CC(C)Oc1ccncc1Nc1nc2c(ccc3c2ncn3C)s1 [Example 157, N-(4-Isopropoxypyridin-3-yl)-6-methyl-6H-imidazo[4′,5′:5,6]benzo[1,2-d]thiazol-2-amine.HCl]
